Values quoted from earlier work, collected in patent publication US9266789B2, “Liquid dicyandiamide and/or alkyl thiophosphoric triamide compositions and their use in agricultural applications” (RHODIA OPERATIONS, priority 2012, dated 2016).

For `N#CNC(=N)N` [Dicyandiamide, 2-cyanoguanidine], the solubility in water is listed as “about 41 g/l”.
